For 2 molecules, EC50 results are on record in ChEMBL document CHEMBL6153080, “Synthesis and Chemical Structure of the Cyclic Heptapeptide Stylissamide H” (J Nat Prod, 2025).

This assay concerns HeLa. In words: Cytotoxicity against human HeLa cells incubated for 24 hrs by WST-8 assay. The format is functional, cell-based. Background: Tetrazolium assays rely on reduction of a dye to a coloured formazan, in cell work by metabolically active cells.

In general, EC50 refers to the concentration needed to bring the measured effect to its halfway point. For the molecule `CC[C@H](C)[C@@H]1NC(=O)[C@@H]2CCCN2C(=O)[C@H](Cc2c[nH]c3ccccc23)NC(=O)[C@@H]2CCCN2C(=O)[C@H](C(C)C)NC(=O)[C@H](Cc2ccccc2)NC(=O)[C@H](CO)NC1=O`, it took 78 µM to reach a half-maximal effect (EC50).

On to `CCC(C)[C@@H]1NC(=O)[C@@H]2CCCN2C(=O)[C@H](Cc2c[nH]c3ccccc23)NC(=O)[C@@H]2CCCN2C(=O)[C@@H](C(C)C)NC(=O)[C@H](Cc2ccccc2)NC(=O)[C@H](CO)NC1=O` (single isomer, unassigned), for which a half-maximal effect (EC50) was put at 61 µM. This EC50 and that of the molecule before are within 1.5-fold of each other.
